Results from ChEMBL document CHEMBL1201862, “PubChem BioAssay data set” (2004).
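These data come from cells grown in 96-well plates and exposed to compound for 48 hours at five concentrations. GI50: concentration for 50% inhibition of growth.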 Active and inactive are the calls of the source. Cut-off read from the data, not from the text of the source: active = GI50 up to about 1.1 µM and inactive = higher.

How the values were obtained:
Assay in all cases: NCI anticancer screen, dose series, 48 h
[1] = system: Malme-3M
[2] = system: SR
[3] = system: SN12C
[4] = system: SW-620
[5] = system: BT-549
[6] = system: MOLT-4
[7] = system: SK-OV-3
[8] = system: OVCAR-3
[9] = system: OVCAR-5
[10] = system: IGROV-1
[11] = system: OVCAR-8
[12] = system: A498
[13] = system: 786-0
[14] = system: CCRF-CEM
[15] = system: HCT-15
[16] = system: RPMI-8226
[17] = system: MDA-MB-231
[18] = system: UO-31
[19] = system: TK-10
[20] = system: K562
[21] = system: SK-MEL-2
[22] = system: CAKI-1
[23] = system: PC-3
[24] = system: RXF 393
[25] = system: U-251
[26] = system: MDA-MB-435
[27] = system: SK-MEL-28
[28] = system: M14
[29] = system: UACC-257
[30] = system: OVCAR-4
[31] = system: SF-268
[32] = system: A549
[33] = system: HOP-62
[34] = system: NCI-H522
[35] = system: DU-145
[36] = system: HCT-116
[37] = system: SNB-75
[38] = system: SNB-19
[39] = system: LOX IMVI
[40] = system: MDA-N
[41] = system: COLO 205
[42] = system: SK-MEL-5
[43] = system: NCI-H23
[44] = system: EKVX
[45] = system: NCI/ADR-RES
[46] = system: KM12
[47] = system: UACC-62
[48] = system: Hs-578T
[49] = system: NCI-H226
[50] = system: HT-29
[51] = system: HOP-92
[52] = system: SF-295
[53] = system: T47D

## Cc1c2c(cc3c1C(=O)C(O)=C([C@@H](C)CO)C3=O)C(C)(C)CCC2
[1]
  GI50: 22.8 µM (inactive)
[2]
  GI50: 2.84 µM (inactive)
[3]
  GI50: 27.7 µM (inactive)
[4]
  GI50: 30.2 µM (inactive)
[5]
  GI50: 35.2 µM (inactive)
[6]
  GI50: 13.4 µM (inactive)
[7]
  GI50: 32.7 µM (inactive)
[8]
  GI50: 27 µM (inactive)
[9]
  GI50: 36.9 µM (inactive)
[10]
  GI50: 29 µM (inactive)
[11]
  GI50: 25.5 µM (inactive)
[12]
  GI50: 25.6 µM (inactive)
[13]
  GI50: 32.3 µM (inactive)
[14]
  GI50: 10.1 µM (inactive)
[15]
  GI50: 29.4 µM
[16]
  GI50: 31.3 µM (inactive)
[17]
  GI50: 23.4 µM (inactive)
[18]
  GI50: 17.5 µM (inactive)
[19]
  GI50: 42.4 µM (inactive)
[20]
  GI50: 38.7 µM (inactive)
[21]
  GI50: 17.1 µM (inactive)
[22]
  GI50: 33.4 µM (inactive)
[23]
  GI50: 19.1 µM (inactive)
[24]
  GI50: 32.1 µM (inactive)
[25]
  GI50: 17.5 µM (inactive)
[26]
  GI50: 26.9 µM (inactive)
[27]
  GI50: 28 µM (inactive)
[28]
  GI50: 23.2 µM (inactive)
[29]
  GI50: 35.6 µM (inactive)
[30]
  GI50: 31.3 µM (inactive)
[31]
  GI50: 15 µM (inactive)
[32]
  GI50: 29.8 µM (inactive)
[33]
  GI50: 22.4 µM (inactive)
[34]
  GI50: 21.3 µM (inactive)
[35]
  GI50: 30.5 µM (inactive)
[36]
  GI50: 25.7 µM (inactive)
[37]
  GI50: 21.6 µM (inactive)
[38]
  GI50: 5.07 µM (inactive)
[39]
  GI50: 28.3 µM (inactive)
[40]
  GI50: 30.7 µM (inactive)
[41]
  GI50: 27 µM (inactive)
[42]
  GI50: 22.2 µM (inactive)
[43]
  GI50: 17.7 µM (inactive)
[44]
  GI50: 15.6 µM (inactive)
[45]
  GI50: 23.3 µM (inactive)
[46]
  GI50: 14.3 µM (inactive)
[47]
  GI50: 28.2 µM (inactive)
[48]
  GI50: 16.7 µM (inactive)
[49]
  GI50: 33.8 µM (inactive)
[50]
  GI50: 15.8 µM (inactive)
[51]
  GI50: 35 µM (inactive)
[52]
  GI50: 22.3 µM (inactive)
[53]
  GI50: 32.8 µM (inactive)
